{"source": "PubChem BioAssay AID1259410", "about": "(Chemical Carcinogenesis Research Information System (CCRIS), 2018)", "origin": "cited, not measured here", "system": "rodent tumor promotion studies, tumor incidence", "experiment": "CCRIS tumor promotion studies", "data": [{"compound": "C[C@H](CCC(=O)O)[C@H]1CC[C@H]2[C@@H]3CC[C@@H]4C[C@H](O)CC[C@]4(C)[C@H]3C[C@H](O)[C@]12C", "values": [{"measurement": "outcome", "setting": "Carcinogen: AZOXYMETHANE, 25843-45-2, Doses [Carcinogen]: 7.4 MG/KG BW/WK FOR 5 WK, Doses [Promoter]: 0, 0.3% OF CHOW PELLETS FOR 45 WK BEGINNING FROM START OF ADMINISTRATION OF CARCINOGEN (STUDY DURATION: 45 WK), Route [Carcinogen]: SUBCUTANEOUS, Route [Promoter]: ORAL, Species: RAT, Strain/Sex: WISTAR/MALE", "value": "colon: tumor"}, {"measurement": "outcome", "setting": "Carcinogen: DIETHYLNITROSAMINE, 55-18-5, 2-(ACETYLAMINO)FLUORENE, 6292-55-3, Carcinogen: DIETHYLNITROSAMINE, 55-18-5, 2-(ACETYLAMINO)FLUORENE, 6292-55-3, Doses [Carcinogen]: 200 MG/KG DEN FOLLOWED 2 WK LATER BY 0.03% 2AAF IN DIET FOR 2 WK PLUS 2 ML/KG CCL4 IN THE MIDDLE OF TREATMENT, Doses [Promoter]: 0.5% IN DIET BEGINNING 1 WK POST CARCINOGEN TREATMENT AND CONTINUING FOR DURATION OF TREATMENT (STUDY DURATION: 35 WK), Route [Carcinogen]: INTRAPERITONEAL, ORAL, Route [Promoter]: ORAL, Species: RAT, Strain/Sex: WISTAR/MALE", "value": "liver: hepatocellular carcinoma or cholangiocarcinoma"}, {"measurement": "outcome", "setting": "Carcinogen: DIETHYLNITROSAMINE, 55-18-5, 2-ACETYLAMINO-FLUORENE, 53-96-3, CARBON TETRACHLORIDE, 56-23-5, Carcinogen: DIETHYLNITROSAMINE, 55-18-5, 2-ACETYLAMINO-FLUORENE, 53-96-3, CARBON TETRACHLORIDE, 56-23-5, Doses [Carcinogen]: 200 NMOL DEN ONCE FOLLOWED 2 WK LATER BY 0.03% 2AAF IN DIET PLUS 2 ML/MG CC14 IN THE MIDDLE OF 2AAF TREATMENT OF 3 WK, Doses [Promoter]: 0, 0.5% IN DIET BEGINNING POST CARCINOGEN TREATMENT AND CONTINUING FOR 30 WK (STUDY DURATION: 35 WK), Route [Carcinogen]: INTRAPERITONEAL, ORAL, Route [Carcinogen]: INTRAPERITONEAL, ORAL, Route [Promoter]: ORAL, Species: RAT, Strain/Sex: WISTAR/MALE", "value": "liver: tumor"}, {"measurement": "outcome", "setting": "Carcinogen: N-METHYL-N-AMYLNITROSAMINE, 13256-07-0, Doses [Carcinogen]: 0.003% IN DRINKING WATER FOR 8 WK FOLLOWED BY TAP WATER FOR 20 WK, Doses [Promoter]: 0, 0.2% IN DIET BEGINNING POST CARCINOGEN TREATMENT AND CONTINUING FOR 20 WK (STUDY DURATION: 28 WK), Route [Carcinogen]: ORAL, Route [Promoter]: ORAL, Species: RAT, Strain/Sex: WISTAR/MALE", "value": "esophagus: papilloma"}, {"measurement": "outcome", "setting": "Carcinogen: N-METHYL-N-AMYLNITROSAMINE, 13256-07-0, Doses [Carcinogen]: 0.003% IN DRINKING WATER FOR 8 WK FOLLOWED BY TAP WATER FOR 20 WK, Doses [Promoter]: 0, 0.2% IN DIET FOR 8 WK SIMULTANEOUSLY WITH CARCINOGEN TREATMENT (STUDY DURATION: 28 WK), Route [Carcinogen]: ORAL, Route [Promoter]: ORAL, Species: RAT, Strain/Sex: WISTAR/MALE", "value": "esophagus: papilloma"}, {"measurement": "outcome", "setting": "Carcinogen: N-METHYL-N-AMYLNITROSAMINE, 13256-07-0, Doses [Carcinogen]: 0.003% IN DRINKING WATER FOR 8 WK FOLLOWED BY TAP WATER FOR 20 WK, Doses [Promoter]: 0, 0.2% IN DIET FOR DURATION OF STUDY (STUDY DURATION: 28 WK), Route [Carcinogen]: ORAL, Route [Promoter]: ORAL, Species: RAT, Strain/Sex: WISTAR/MALE", "value": "esophagus: carcinoma, papilloma"}, {"measurement": "outcome", "setting": "Doses [Carcinogen]: IR, Route [Carcinogen]: RECTAL, Route [Promoter]: RECTAL, Species: RAT, Strain/Sex: FEMALE", "value": "colon"}]}, {"compound": "CC(N)Cc1ccccc1", "note": "(stereo unspecified)", "values": [{"measurement": "outcome", "setting": "Carcinogen: BITTNER MAMMARY TUMOR VIRUS, Doses [Promoter]: 0, 0.4 MG/KG/D IN 1 ML/KG OF 0.9% SALINE FOR DURATION OF STUDY (STUDY DURATION: 730 D), Route [Promoter]: SUBCUTANEOUS, Species: MOUSE, Strain/Sex: C3H/FEMALE", "value": "mammary gland: tumor"}]}, {"compound": "CSCC[C@H](NC(=O)[C@H](Cc1ccccc1)NC(=O)CNC(=O)CNC(=O)[C@@H](N)Cc1ccc(O)cc1)C(=O)O", "values": [{"measurement": "outcome", "setting": "Carcinogen: AZOXYMETHANE, 25843-45-2, Doses [Carcinogen]: 7.4 MG/KG IN 0.9% SALINE 1/WK FOR 10 WK, Doses [Promoter]: 0, 50 UG/KG IN OLIVE OIL 1/2 D BEGINNING AT THE START OF CARCINOGEN TREATMENT AND CONTINUING FOR DURATION OF STUDY (STUD, Route [Carcinogen]: SUBCUTANEOUS, Route [Promoter]: SUBCUTANEOUS, Species: RAT, Strain/Sex: WISTAR/MALE", "value": "colon: tumor"}, {"measurement": "outcome", "setting": "Carcinogen: N-METHYL-N'-NITRO-N-NITROSOGUANIDINE, 70-25-7, Doses [Carcinogen]: 25 UG/ML IN DRINKING WATER FOR 25 WK, Doses [Promoter]: 0, 20 UG/KG 1/2 D BEGINNING POST CARCINOGEN TREATMENT AND CONTINUING FOR THE DURATION OF STUDY (STUDY DURATION: 52 WK), Route [Carcinogen]: ORAL, Route [Promoter]: SUBCUTANEOUS, Species: RAT, Strain/Sex: WISTAR/MALE", "value": "stomach: adenocarcinoma"}]}, {"compound": "CC1=C(/C=C/C(C)=C/C=C/C(C)=C\\C(=O)O)C(C)(C)CCC1", "values": [{"measurement": "outcome", "setting": "Carcinogen: ETHYLNITROSOUREA [759-73-9], Doses [Carcinogen]: 120 UG/KG ONCE, Doses [Promoter]: 200 MG/KG FEED FOR 60 WK (STUDY DURATION: 60 WK), Route [Carcinogen]: IP INJECTION, Route [Promoter]: DIET, Species: MOUSE, Strain/Sex: B6C3F1/MALE (?,44)/(?,35)", "value": "liver: hepatocellular carcinoma"}]}, {"compound": "N#CS", "values": [{"measurement": "outcome", "setting": "Carcinogen: N-BIS(2-HYDROXYPROPYL)NITROSAMINE, 53609-64-6, Doses [Carcinogen]: 280 MG/100 G/BW ONCE, Doses [Promoter]: 0, 0.5% IN DRINKING WATER FOR 25 WK (STUDY DURATION: 26 WK), Route [Carcinogen]: SUBCUTANEOUS, Route [Promoter]: ORAL, Species: RAT, Strain/Sex: F344/MALE", "value": "thyroid: neoplasm"}]}, {"compound": "O=[As]O", "values": [{"measurement": "outcome", "setting": "Carcinogen: UV RADIATION 3X A WK FOR 6 MO STARTING 3 WKS AFTER ARSENITE, Doses [Promoter]: 5.0 MG/L STARTING AT 3 WKS OF AGE (STUDY DURATION: 28 WKS), Route [Carcinogen]: DERMAL, Route [Promoter]: DRINKING WATER, Species: MOUSE, Strain/Sex: CRL:SK1-HRBD (HAIRLESS)/FEMALE", "value": "skin: 3.6 tumors/mouse uv alone; 7.0 tumors/mouse uv and arsenite"}, {"measurement": "outcome", "setting": "Carcinogen: UV-B IRRADIATION (WESTINGHOUSE SOLAR FS-20 LAMP 85% IN 290-320 NM RANGE), Doses [Carcinogen]: 1.7 KJ/SQ M 3/WK FOR 182 D BEGINNING 3 WK POST PROMOTER FIRST DOSE, Doses [Promoter]: 0, 10 MG/L IN DRINKING WATER BEGINNING AT 21 D AFTER BIRTH (STUDY DURATION: 203 D), Route [Carcinogen]: DERMAL, Route [Promoter]: ORAL, Species: MOUSE, Strain/Sex: SKH/FEMALE", "value": "skin: squamous cell carcinoma"}]}, {"compound": "C[C@]12CC[C@H]3[C@@H](CCC4=CC(=O)CC[C@@]43C)[C@@H]1CC[C@@H]2O", "values": [{"measurement": "outcome", "setting": "Carcinogen: DIETHYLNITROSAMINE, 55-18-5, Doses [Carcinogen]: 2.5 UG/G BW IN SALINE ONCE, Doses [Promoter]: 0, 0.5-1 MG IN PELLET IMPLANTED 1/MONTH FOR 30 WK BEGINNING 30 D POST CARCINOGEN TREATMENT. DOSING BEGAN SAME DAY OF BIL, Route [Carcinogen]: INTRAPERITIONEAL, Route [Promoter]: SUBCUTANEOUS, Species: MOUSE, Strain/Sex: B6C3F1/FEMALE", "value": "liver: tumor"}]}, {"compound": "CCCCCCCCCCO", "values": [{"measurement": "outcome", "setting": "Carcinogen: 7,12-DIMETHYLBENZ(A)ANTHRACENE, Doses [Carcinogen]: TOP, Route [Carcinogen]: DERMAL, Route [Promoter]: DERMAL, Species: MOUSE, Strain/Sex: FEMALE", "value": "integumentary system (skin)"}]}]}
